The test system of one data set is B and T cells. The experiment in a line: Immune cells in blood of HBV-infected mice, flow cytometry. The following applies: 530 mg/kg/day, once a day, oral gavage, day 9, Figure 19. In general terms: In flow cytometry, cells or beads pass a laser one at a time.
The next data set has as its system 293 cells. Briefly: Cytotoxicity test, MTT assay. Type of data set: cell-based. Conditions: Homo sapiens, HEK293; 1 µM, 72h. The method, then: (§1) […]. Various cells in the logarithmic growth phase were seeded in 96-well plates at 6,000 cells/well and cultured for 24h. […]. The dosage of DMSO in the solvent control group was based on the maximum dose of 0.1% used in the test group, with four duplicate wells for each concentration. Cells were treated with the drug for 72h and then added with 20µL 5 mg/mL MTT, cultured at 37°C for 4h, after added 100 µ L triple solution (10% SDS, 5% isobutanol, 12 mM hydrochloric acid), 96-well cell culture plate was placed in an incubator containing 5% CO2 at 37 ± 1°C overnight. OD value at 570nm was measured on a microplate reader.
(§2) The inhibition rate of tumor cell growth was calculated according to the following formula: Inhibition rate(%) = [(OD570controlwell−OD570dosewell)/OD570controlwell] × 100. [formula]
For orientation: Tetrazolium assays rely on reduction of a dye to a coloured formazan, in cell work by metabolically active cells.

Another data set deals with A549 cells. Briefly: Cytotoxicity test, MTT assay. It is filed as cell-based. Conditions: Homo sapiens, A549; 1 µM, 72h. How it is done: as §1, §2
Another data set relates to HCT-116 cells. Briefly: Cytotoxicity test, MTT assay. It is filed as cell-based. The following applies: Homo sapiens, HCT-116; 1 µM, 72h. How it is done: as §1, §2
A further data set has as its system Hela cells. The experiment in a line: Cytotoxicity test, MTT assay. It is filed as cell-based. The following applies: Homo sapiens, 1 µM, 72h, read-out: Inhibition (%) Hel a. The method, then: as §1, §2
The test system of the next data set is HepG2 cells. The experiment in a line: Cytotoxicity test, MTT assay. Conditions: Homo sapiens, HepG2; 1 µM, 72h; read-out: Inhibition (%) Hep G2. Type of data set: cell-based. The method, then: as §1, §2
In another data set the test system is Huh7 cells. The experiment in a line: Cytotoxicity test, MTT assay. Type of data set: cell-based. Conditions: Homo sapiens, Huh-7; 1 µM, 72h; read-out: Inhibition (%) Hu h7. The method, then:
as §1, §2

In the next data set the test system is MCF7 cells. The experiment in a line: Cytotoxicity test, MTT assay. It is filed as cell-based. Conditions: Homo sapiens, MCF7; 1 µM, 72h; read-out: Inhibition (%) MC F7. How it is done: as §1, §2
For a further data set, the system named is MKN45 cells. Briefly: Cytotoxicity test, MTT assay. It is filed as cell-based. The following applies: Homo sapiens, MKN-45; 1 µM, 72h. The method, then:
as §1, §2

SMILES strings stand for the structures. Structures can show the parent of a compound that is named as a salt.

Data on 2 compounds can be found in patent EP3991729A1, “USE OF AMLEXANOX IN PREPARING ANTI-HEPATITIS VIRUS DRUG” (Marine Biomedical Research Institute Of Qingdao Co., Ltd., priority 2019, dated 2020).

Procedure for B and T cells: Six-week-old male C57 mice were rapidly injected with 10µg/mouse of viral genomic DNA (genotype A) by tail vein injection in a short period. Viral infection was established using a venous hypertension model and randomly divided into groups. […] At the same time, a blank control was set up, and oral administration in uninfected mice was equivalent to the model group.
On day 9, mice were sacrificed to collect blood stained with flow antibody after fission red. All cells were treated with anti-FcγRIII/ II (purchased from BD Biosciences) in PBS for 30 min. CD3e-FITC (purchased from BD Biosciences). CD4-PE, CD8a-APC-Vio770, and CD34-FITC (GE). CD19-APC, CD11b-PE-Cyanine7, and CD117-efflor 450 (purchased from eBioscience). After staining, the samples were suspended using 500µL PBS and analyzed by BD Aria III flow cytometer.

On to `Nc1ccn([C@@H]2CS[C@H](CO)O2)c(=O)n1` [lamivudine], for which the “effect on immune cells in blood” value in the data set with B and T cells is “had some inhibitory effects on immune cells”.

As a reminder, the inhibition is how much of the control response was suppressed. Consider `COc1cccc2c1C(=O)c1c(O)c3c(c(O)c1C2=O)C[C@@](O)(C(=O)CO)C[C@@H]3O[C@H]1C[C@H](N)[C@H](O)[C@H](C)O1` [Adriamyci n Hydrochloride, doxorubicin hydrochloride], for which the inhibition at 1 µM stood at 57.9% in the data set with 293 cells; 85.8% in the data set with A549 cells; 71.9% with HCT-116 cells; 48.8% with Hela cells; 92.1% with HepG2 cells; 76.9% with Huh7 cells. The inhibition at 1 µM in the data set on MCF7 cells worked out at 88%; in the data set with MKN45 cells, 39.4%.
